For one data set, the system named is AM-38. Briefly: Glioblastoma cell viability and proliferation assay (ATP), AM-38. Type of data set: cell-based. The following applies: AM38, 72 hr. On the procedure: (§1) FIG. 9. Glioblastoma in vitro cell viability and proliferation assay after treatment with de-ethylflavopereirine. Glioblastoma cell lines U-87MG, DBTRG-05MG, A172, and AM-38 were tested. Temozolomide, an oral chemotherapy drug known to treat some brain cancers, was used as a control. The concentrations of temozolomide (circles) or compound 13-9-1 (squares) used were 3 nM, 10 nM, 30 nM, 100 nM, 1 uM, 3 uM, 10 uM, and 30 uM. Each of the cell lines was treated with de-ethylflavopereirine for 72 hr before measuring cytotoxicity and inhibition of cell proliferation. Number of viable cells in culture based on quantitation of ATP. IC50 was determined as indicated below each graph.
(§2) The dose-response curves for the anti-brain cancer drug temozolomide are shown for comparison.

The subject of the next data set is PANC-1 cells. Briefly: Spheroid formation (cancer stem cells). Type of data set: cell-based. As for the experimental part: FIG. 22. PANC-1 cell suspensions were treated at concentrations of 0 μM (negative control), 2.5 μM, 5.0 μM, and 10.0 μM de-ethylflavopereirine then examined for the presence of spheroids.
FIG. 23. Primary spheroids from first round were collected and seeded for secondary spheroid formation. Following treatment with concentrations of 0 μM (negative control), 2.5 μM, 5.0 μM, and 10.0 μM de-ethylflavopereirine, suspensions were examined.
In vitro, cancer stem cells form spheroids: clusters of cancer cells surrounding a cancer stem cell. Inhibition of spheroid formation is a test for anti-cancer stem cell activity of a compound.

For another data set, the system named is LnCap. The data set can be described thus: Cell Proliferation (anti-cancer), LnCap. Type of data set: cell-based, human. On the procedure: The primary goal of synthesizing de-ethylflavopereirine (compound 13-9-1) was to generate a different compound that still retains the anti-cancer cell activity of flavopereirine (compound 13-7-2). Comparison of the effects of the two compounds on proliferation of a variety of cancer cells confirmed that this goal was achieved. For example, the effect of de-ethylflavopereirine on two human breast cancer cell lines and two human prostate cancer cell lines were analyzed.

A further data set deals with PANC-1, MIA PaCa, BxPc. The data set can be described thus: Apoptosis by flow cytometry in pancreatic cancer cell lines. Type of data set: cell-based. The following applies: 10 μM and 20 μM. On the procedure: FIG. 11. De-ethylflavopereirine induces apoptosis in pancreatic cancer cell lines PANC-1 (top), MIA PaCa (middle), and BxPc (bottom). Following exposure of cells to de-ethylflavopereirine at concentrations of 0.5 μM, 10 μM, and 20 μM, flow cytometry was used to assess the percentage of cells undergoing early apoptosis (clear), late apoptosis (dark), or necrosis (stipple). […] Values are mean±SEM (n=3). *p≤0.05 compared with control group using Student's t-test; **p≤0.01 compared with control group using Student's t-test.
(A flow cytometer gives signals particle by particle.)

The subject of the next data set is HT-29 tumors. Briefly: Subcutaneous HT-29 colon cancer xenografts. Format: in vivo. As to conditions: for toxicity and deaths of tumor-bearing mice: mouse, in vivo; for TUNEL staining of tumor sections: tumors removed after treatment. As for the experimental part:
FIG. 30. Effect of de-ethylflavopereirine on HT-29 colon cancer tumor volume. Nude mice with subcutaneous xenografts of human HT-29 colon cancer cells were grouped as untreated control (squares), administered compound 13-9-1 (triangles), or administered IFL as conventional chemotherapy regimen (circles). IFL is a combination of irinotecan, fluorouracil, and leucovorin often used for treatment of colorectal cancer. […] Animals were treated for two and a half weeks.
FIGS. 31 to 33 show TUNEL staining of HT-29 tumors removed from untreated mice (control) in FIG. 31, mice administered de-ethylflavopereirine in FIG. 32, or mice administered IFL in FIG. 33. […] After treatments were concluded, tumors were removed from the animals, fixed, thin sectioned, and stained by the TUNEL method to identify cells undergoing apoptosis. In FIG. 31, the borders of tumors from control animals show intact tissue and the absence of TUNEL staining. […] The color images clearly distinguish the dark purple/brown color of cells undergoing apoptotis from the blue color of intact tumor cells.
In this example, the anti-tumor activity of de-ethylflavopereirine was compared with the activity of IFL (a combination of irinotecan, fluorouracil, and leucovorin). IFL has been routinely used in the treatment of colorectal cancer, but is associated with significant toxicity. The toxicity is so severe that some have encapsulated irinotecan in liposomes to reduce negative side effects.
A comparison of the direct impact of de-ethylflavopereirine and IFL on tumors is depicted in FIGS. 32 and 33. Terminal deoxynucleotidyl transferase dUTP nick-end labeling (TUNEL) is a method for detecting DNA fragmentation by labeling the 3′-hydroxyl termini in the double-strand DNA breaks generated during apoptosis. Tumor sections from the two groups and an untreated control group were immunostained by the TUNEL method to specifically identify cells undergoing apoptosis.

Data set [1] concerns glioblastoma cell lines U-87MG, DBTRG-05MG, A172. Briefly: Glioblastoma cell viability and proliferation assay (ATP). Type of data set: cell-based. As to conditions: 3 nM to 30 uM, 72 hr. As for the experimental part:
as §1, §2

Data set [2] concerns PANC-1 pancreatic cancer cells. The data set can be described thus: Anchorage independent colony formation in soft agar. Format: cell-based. The following applies: 10 μM or 15 μM, 20 days; listed as De-ethylflavopereirine. The text has this: FIG. 13. Colony formation in soft agar of PANC-1 pancreatic cancer cells with or without de-ethylflavopereirine treatment.
Anchorage independent colony formation assay in soft agar was used to test long-term survival (20 days) of tumorigenic pancreatic cancer cells after exposure to de-ethylflavopereirine. PANC-1 cells formed colonies at the rate of 12% when untreated. […] No tumorigenic cancer cells survived after exposure to compound 13-9-1 (FIG. 13).

Molecules are shown by their SMILES. pIC50: −log10 of the molar value. Entries after “also recorded” stand apart in the source; their conditions may differ.

`c1ccc2c(c1)[nH]c1c2cc[n+]2ccccc12` [Compound 13-9-1, 12H-indolo[2,3-a]quinolizin-5-ium]: the “IC50 relative to IC50 of temozolomide” value with AM-38 stood at 0.66 times. Also, the secondary spheroid formation result was “significant inhibition” with PANC-1 cells (2.5 μM); “completely inhibited” with PANC-1 cells (5 μM and 10 μM). Further, the primary spheroid formation entry in the data set with PANC-1 cells (5 μM and 10 μM) is “significantly inhibited primary spheroid formation”. In addition, the “Growth Inhibition” value in the data set on LnCap was “Yes”. The pIC50 with LnCap (Homo sapiens, after any period of treatment, read-out: Minimum Dose (IC50) needed to decrease growth 50% or greater versus control) was 5.30. Also, the induction of apoptosis result with PANC-1, MIA PaCa, BxPc was “induction is dose dependent”; in the data set on PANC-1, MIA PaCa, BxPc (listed as De-ethylflavopereirine) it was “Early apoptosis is the predominant result”. Also, the “toxicity and deaths of tumor-bearing mice” value is reported as “did not have toxic effects on the mice” with HT-29 tumors and “No animals treated with compound 13-9-1 died” in the data set with HT-29 tumors (nude, 2.5 weeks). Moreover, the HT-29 tumor volume result with HT-29 tumors (treated for two and a half weeks) is “reduced HT-29 tumor volumes”. The “TUNEL staining of tumor sections” value in the data set on HT-29 tumors is “apoptosis in zones near the periphery of the tumors”; in the data set on HT-29 tumors (listed as de-ethylflavopereirine) it was “cells on the periphery were undergoing apoptosis”. For the same compound, the glioblastoma cell viability entry in data set [1] is given as “dose-dependent decrease in glioblastoma cell viability”. For the same compound, the “colony formation in soft agar” value in data set [2] is given as “completely inhibited formation of PANC-1 colonies; also recorded: completely inhibited colony formation”.

A word on the pIC50: it is the negative decadic logarithm of the IC50, by convention in mol/L.
